Measurements published in publication PMC10975012, “The Active Glucuronide Metabolite of the Brain Protectant IMM-H004 with Poor Blood–Brain Barrier Permeability Demonstrates a High Partition in the Rat Brain via Multiple Mechanisms” (Pharmaceutics, 2024).

Tests used:
[1] = In vitro metabolism in rat brain homogenate; format: in vitro ADME
Experimental: Rat brains were homogenized in chilled saline (1:3, w/v) on ice to obtain the brain homogenate. The incubation mixtures composed of the brain homogenate (2 mg protein/mL), alamethicin (50 μg/mg protein), IMM-H004 (10 μmol/L), and UDPGA (5 mmol/L) in a final volume of 0.2 mL of Tris-HCl buffer (50 mmol/L, pH 7.4) containing 5 mmol/L of MgCl2. Before initiating the reaction, the brain homogenate was preincubated with alamethicin on ice for 15 min. Subsequently, IMM-H004 and UDPGA were added to initiate the reaction. After incubating at 37 °C for 60 min, the reaction was quenched by adding two volumes of acetonitrile containing IS (0.1 μg/mL). On the other hand, IMM-H004G (1 μmol/L) was incubated with the brain homogenate (2 mg protein/mL) for up to 4 h. The concentrations of IMM-H004 and IMM-H004G were determined by LC-MS/MS.

[2] = In vivo metabolism of IMM-H004 in rat brain after intracerebroventricular injection; settings: for detection in brain regions: 6–60 min after icv injection of IMM-H004 3.8 μg/kg
Experimental: The metabolism of IMM-H004 in the brain was investigated through the intracerebroventricular (icv) injection of IMM-H004 in rats, and the drug concentration in each brain region was analyzed. The rats were fixed on a benchmark stereotactic instrument (Leica Biosystems, Deer Park, IL, USA) under isoflurane anesthesia. Using a microinjector connected to a syringe pump, a 5 μL solution of IMM-H004 was dissolved in artificial cerebrospinal fluid (ACSF) and injected (3.8 μg/kg) into the lateral ventricle. The injection coordinates were as follows: medial/lateral = 1.5 mm; anterior/posterior = −0.8 mm; dorsal/ventral = −4 mm. Animals were sacrificed at 6, 15, 30, 45, and 60 min after drug administration. The brains were collected and dissected on ice into the following regions: the cerebellum, brainstem, hypothalamus, hippocampus, midbrain, striatum, and cortex. The subsequent procedure for processing tissue samples was the same as the procedure described in Section 2.3.1.

[3] = tested on: OAT, OCT, OCTN, BCRP, and MRP; assay: Identification of transporters using inhibitors in hCMEC/D3 cells: other transporters; format: cell-based, human; settings: substrate 10 μmol/L
Experimental: The toxicity of all compounds, including inhibitors and substrates, toward hCMEC/D3 cells, was assessed using the 3-(4,5-Dimethylthiazol-2-yl)-2,5-diphenyltetrazolium bromide (MTT) reduction assay as described previously. To assess the effects of pyrilamine-sensitive proton-coupled organic cation (H^+/OC) antiporter, organic anion transporter (OAT), organic anion-transporting polypeptides (OATPs), organic cation transporter (OCT), and novel organic cation–carnitine transporter (OCTN) inhibitors on the uptake process, IMM-H004 or IMM-H004G (10 µmol/L) combined with the inhibitors were added to the medium after preincubating the cells with the inhibitors for 30 min. For evaluating the impact of the multidrug and toxin extrusion transporter (MATE), P-glycoprotein (P-gp), multidrug resistance protein (MRP), and breast cancer resistance protein (BCRP) on the uptake, IMM-H004 or IMM-H004G (10 µmol/L) was preincubated with the cells for 2 h before the addition of the inhibitors. After removing the supernatant, the cells were washed twice with prewarmed HBSS and incubated with fresh HBSS for 20 min. At the end of incubation, the supernatants were collected. […] The protein content of the lysed cells was determined using a bicinchoninic acid (BCA) assay kit (Beyotime Inc., Shanghai, China). The results were expressed as a percentage of the vehicle control.

[4] = In situ brain perfusion; format: in vivo, rat; settings: 10 μmol/L
Experimental: The rat brain was perfused following a previously described method. Briefly, the common carotid arteries on both sides were cannulated and connected to the perfusion system, while the external carotid artery was ligated. At the beginning of perfusion, the jugular veins on both sides were quickly incised. The perfusion procedure consisted of a preperfusion wash with saline for 1 min, followed by drug infusion (2 µmol/L IMM-H004 or IMM-H004G) for 2, 5, and 10 min, and concluded with a postperfusion wash (saline for 5 min) at a rate of 4.0 mL/min. To examine the impact of P-gp (PSC833, 5 µmol/L) and OATP (rifamycin SV, 100 µmol/L) on BBB transport, the perfusate containing the inhibitor was perfused for 1 min, and then the mixture of IMM-H004 or IMM-H004G (10 µmol/L) and the inhibitor was perfused for 10 min. Following the perfusion, the rats were decapitated, and their brains were homogenized (1:3, w/v) in chilled saline. The concentrations of IMM-H004 and IMM-H004G were then determined by LC-MS/MS.
The unidirectional transfer constant Kin (mL/min/g) was calculated using the following equation:(4) Kin=Qbr/Cpf[…] where Qbr/Cpf is the apparent brain distribution volume, Qbr is the measured amount of compound in brain tissue, Cpf is the concentration of compound in the perfusate, and T is the perfusion time.

[5] = Pharmacokinetics in rats with cerebral microdialysis; format: in vivo; settings: rat; for Kp: brain (cerebral cortex microdialysate) and plasma, read-out: Kp (AUCbrain/AUCplasma); for peak brain concentration: free concentration (microdialysis); for AUCbrain / concentration at 2 min / AUC: free concentration; for concentration at 2 min / AUC: plasma (free concentration); for AUC: read-out: AUCplasma
Experimental: Rats were anesthetized with isoflurane. Microdialysis intracerebral guide cannulas and CMA 12 Elite Probe (PAES membrane with a MWCO of 20 kDa, 2 mm membrane length (CMA/Microdialysis AB, Stockholm, Sweden)) were implanted into the cerebral cortex at the coordinates relative to bregma: medial/lateral = 3.0 mm; anterior/posterior = 0.5 mm; dorsal/ventral = −3.0 mm. After a 24 h recovery period, the intracerebral probe was connected to the microdialysis cannula, and Ringer’s solution was perfused at a flow rate of 2.0 μL/min. Then, IMM-H004 citrate or IMM-H004G (10 mg/kg) was injected intravenously (iv). Dialysate samples were collected every 5 to 60 min for a duration of 7 h. The probe recovery in vitro was determined by dialyzing a standard mixture of IMM-H004 (50 ng/mL) and IMM-H004G (300 ng/mL) infused with Ringer’s solution.
Blood samples were collected from the orbital plexus into heparinized tubes and subsequently centrifuged to separate the plasma. The concentrations of IMM-H004 and IMM-H004G in both the dialysate and plasma samples were determined using LC-MS/MS analysis. Subsequently, the free concentrations in the brain and plasma were corrected with probe recovery and fu for further analysis, respectively. The pharmacokinetic parameters were calculated via noncompartmental analysis (NCA) using Phoenix WinNonlin 6.3 (Pharsight Corporation, Sunnyvale, CA, USA). The brain–plasma partition coefficient (Kp) was determined as the ratio of the area under the concentration–time curve for the brain (AUCbrain) to that of the plasma (AUCplasma).

[6] = cited from earlier work
[7] = after iv IMM-H004 citrate 10 mg/kg

Compound	stability of IMM-H004G (change in concentration) ([1]; 1 μmol/L, rat brain homogenate 2 mg/mL protein, 4 h)	detection in brain regions [2]	Kp ([2]; hypothalamus and plasma, icv or intrathecal, 3.8 ug/kg, after icv injection of IMM-H004 3.8 μg/kg, read-out: hypothalamus-to-plasma AUC ratio)	effect of inhibitors of OAT, OCT, OCTN, BCRP, and MRP on uptake [3]	change in Kin value with OATP inhibitor ([4]; rifamycin SV 100 μmol/L, 10 min perfusion, rat)	AUCbrain relative to that of IMM-H004 [5, 7]	AUCplasma relative to that of IMM-H004 [5, 7]	Kp [5, 7]	peak brain concentration ([5]; after iv IMM-H004G 10 mg/kg)	AUCbrain ([5]; after iv IMM-H004G 10 mg/kg)	AUCbrain [5, 7]	concentration at 2 min ([5]; after iv IMM-H004G 10 mg/kg)	AUC [5, 7]	brain exposure relative to the parent drug ([6]; rats)	formation of IMM-H004G ([1]; IMM-H004 10 μmol/L, rat brain homogenate, 1 h)	increase in Kin value with P-gp inhibitor PSC833 compared to control ([4]; PSC833 5 μmol/L, 10 min perfusion, rat)	Kin value relative to that of IMM-H004G ([4]; in situ rat brain perfusion)	elimination half-life ([6]; rat plasma and brain tissues, intravenous dosing)
COc1cc(OC2OC(C(=O)O)C(O)C(O)C2O)cc2oc(=O)c(N3CCN(C)CC3)c(C)c12 (centres unmarked) [IMM-H004G]	did not result in a reduction in its concentration	only detected at lower concentrations in the hypothalamus	3.13	No significant impact	no significant change	5.4 times	116 times	0.06	1712 nmol/L	1.923 µM·h	1.053 µM·h	40.2 µM	16.4 µM·h	six times higher				
COc1cc(O)cc2oc(=O)c(N3CCN(C)CC3)c(C)c12 [IMM-H004]		detected in all brain regions		No significant impact				1.39	35.1 nmol/L	0.0938 µM·h	0.196 µM·h	0.0398 µM	0.141 µM·h		time-dependent	4.3 times	18 times higher	< 1 h
